Here are results for 3 compounds from patent US20110124787A1, “RUBBER COMPOSITION” (BRIDGESTONE CORPORATION, priority 2008, published 2011).

For `CN(Sc1nc2ccccc2s1)C(C)(C)C` [N-methyl-N-t-butylbenzothiazole-2-sulfenamide], the melting point lay within 56 to 58 °C.
Compound `CCCCN(Sc1nc2ccccc2s1)C(C)(C)C` [N-n-butyl-N-t-butylbenzothiazole-2-sulfenamide] gave a melting point of 55 to 56 °C.
In the case of `CCN(Sc1nc2ccccc2s1)C(C)(C)C` [N-ethyl-N-t-butylbenzothiazole-2-sulfenamide], the melting point lay within 60 to 61 °C.

By melting point is commonly meant the temperature of the solid-liquid transition.
